Legend:
[1] = target: T1, PPARG/RXRA LBD heterodimer (Homo sapiens, UniProt P37231); experiment: PPARγ-NCOR1 recruitment assay (TR-FRET, biotinylated NCOR1 ID2 peptide); type: biochemical; settings: 80 nM Rosiglitazone, 3 hours, read-out: PPARG-NCOR recruitment assay EC50
T1 construct: His-TEV-Q203-Y477; Uniprot ID P37231-2; made in house; host or cells: E. coli
Outline: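 2 nM each of E. coli-expressed PPARG LBD (Q203-Y477) and RXRA LBD (WT or S427F, E228-T462) with biotinylated NCOR1 ID2 peptide, incubated 3 h; TR-FRET read at Ex/Em 615/665. Ratios normalized to DMSO (0%) and T0070907 maximum (100%) for EC50 and maximal recruitment.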
T1 sequence (O75376 2251-2273 partner, one chain of several): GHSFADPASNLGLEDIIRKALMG

[2] = target: T2, PPARG/RXRA LBD heterodimer (Homo sapiens, UniProt P37231); experiment: PPARγ-MED1 blockade assay (TR-FRET, biotinylated MED1 LxxLL peptide); type: biochemical; settings: WT PPARG LBD/WT RXRA LBD, 80 nM Rosiglitazone, 3 hours
T2 construct: His-TEV-Q203-Y477; Uniprot ID P37231-2; made in house; host or cells: E. coli
T2 sequence (P37231 203-477 isoform P37231-2): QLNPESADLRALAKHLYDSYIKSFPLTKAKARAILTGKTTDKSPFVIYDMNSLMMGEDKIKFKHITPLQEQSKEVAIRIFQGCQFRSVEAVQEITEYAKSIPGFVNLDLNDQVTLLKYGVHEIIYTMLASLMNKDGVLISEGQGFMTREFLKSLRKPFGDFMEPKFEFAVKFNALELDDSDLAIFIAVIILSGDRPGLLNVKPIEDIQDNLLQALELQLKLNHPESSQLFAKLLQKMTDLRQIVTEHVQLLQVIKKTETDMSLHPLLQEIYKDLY
T2 sequence (P19793 228-462 partner limits assumed): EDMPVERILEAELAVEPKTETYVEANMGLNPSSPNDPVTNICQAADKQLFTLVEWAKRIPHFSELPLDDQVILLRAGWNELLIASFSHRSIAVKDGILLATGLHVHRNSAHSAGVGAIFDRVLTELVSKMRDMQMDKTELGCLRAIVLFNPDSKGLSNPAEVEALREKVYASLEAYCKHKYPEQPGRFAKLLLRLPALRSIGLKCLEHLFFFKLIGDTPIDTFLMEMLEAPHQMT
Outline: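 TR-FRET measuring biotinylated MED1 LxxLL peptide association with 2 nM each His-PPARG LBD (Q203-Y477) and Flag-RXRA LBD (E228-T462), E. coli expressed. Read after 3 h incubation; ratios normalized to DMSO (0%) and GW9662 minimum (100%) for IC50 and maximal MED1 repulsion.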

[3] = tested on: FABP4, a PPARG target gene, in 5637 (PPARG amplified) cells; experiment: Bladder cancer pharmacodynamic assay, 5637 cell assay (qPCR of FABP4); type: cell-based; settings: 5637 cells, 24 hours, 100 nM compound, relative to DMSO control
Experimental: Bladder Cancer Pharmacodynamic Assay
5637 (PPARG amplified) and HT1197 (RXRA S427F mutation) cells were used for assessment of modulation of PPARG target genes using quantitative PCR. Cells were treated for 24 hours with PPARG inverse agonists prior to analysis of FABP4 (IDT, Cat: Hs.PT 58.20106818) and ANGPTL4 (IDT, Cat: Hs.PT 58.25480012) expression, with expression of the housekeeping gene TBP (IDT, Cat: Hs.PT 58v.39858774) used to normalize expression across samples. Quantitative PCR was performed using an ABI QuantStudio 7 Flex Reaction system. Data were analyzed and reported relative to DMSO control using the comparative Ct method (ΔΔCt).

[4] = tested on: ANGPTL4, a PPARG target gene, in HT1197 (RXRA S427F mutation) cells; experiment: Bladder cancer pharmacodynamic assay, HT1197 cell assay (qPCR of ANGPTL4); type: cell-based; settings: Homo sapiens, 24 hours; for inhibition at 0.1 µM: 100 nM compound, relative to DMSO control
Outline: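 5637 (PPARG amplified) and HT1197 (RXRA S427F) cells treated 24 h with PPARG inverse agonists. FABP4 and ANGPTL4 expression measured by qPCR, normalised to TBP, and reported relative to DMSO control by ΔΔCt.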

EC50 [1] [µM]	EC50 [2] [µM]	EC50 ([4]; ANGPTL4 expression) [µM]	Compound	inhibition at 0.1 µM [3] [%]	inhibition at 0.1 µM [4] [%]
0.1 to 1	0.1 to 1		N#Cc1ccc(Br)c(-c2cc(=O)c3cc(F)c(F)cc3[nH]2)c1 [Example 6, 4-bromo-3-(6,7-difluoro-4-oxo-1,4-dihydroquinolin-2-yl)benzonitrile]	93	
1 to 10	1 to 10		N#Cc1ccc(Cl)c(-c2cc(=O)c3cc(F)c(F)cc3[nH]2)c1 [Example 5, 4-chloro-3-(6,7-difluoro-4-oxo-1H-quinolin-2-yl)benzonitrile]	90	86
0.1 to 1	0.1 to 1		N#Cc1ccc(Cl)c(-c2cc(=O)c3cc(Cl)c(Cl)cc3[nH]2)c1 [Example 2, 4-chloro-3-(6,7-dichloro-4-oxo-1,4-dihydroquinolin-2-yl)benzonitrile]	93	83
0.01 to 0.1	0.1 to 1		N#Cc1ccc(Cl)c(-c2cc(=O)c3c(F)c(-c4ccc(C(F)(F)F)cc4)c(F)cc3[nH]2)c1 [Example 11, 4-chloro-3-(5,7-difluoro-4-oxo-6-(4-(trifluoromethyl)phenyl)-1,4-dihydroquinolin-2-yl)benzonitrile]	94	88
0.01 to 0.1	0.01 to 0.1		N#Cc1ccc(Br)c(-c2cc(=O)c3c(F)cc(F)cc3[nH]2)c1 [Example 4, 4-bromo-3-(5,7-difluoro-4-oxo-1,4-dihydroquinolin-2-yl)benzonitrile]	94	90
0.1 to 1	0.1 to 1	0.005	N#Cc1ccc(Cl)c(-c2cc(=O)c3c(F)cc(F)cc3[nH]2)c1 [Example 1, 4-chloro-3-(5,7-difluoro-4-oxo-1,4-dihydroquinolin-2-yl)benzonitrile]	95	88

— patent publication US20240166624A1, “PPARG INVERSE AGONISTS AND USES THEREOF” (Flare Therapeutics Inc., priority 2021, published 2024)
